Measurements reported in US12611425B2, “Compositions and methods for treatment and prevention of pathogens” (WIAB WATER INNOVATION AB, priority 2022, dated 2026).
Where two headings read alike, the source gives them in different places.

How the values were obtained:
[1] = cited from earlier work
[2] = cited from earlier work; remark: listed apart in the source
human rhinovirus (HRV) = conditions: low concentration nasal irrigation solution, in vitro, nasal epithelial cells; cited from earlier work
avian influenza virus = conditions: similar formulations, in vitro; cited from earlier work
[3] = system: bacterial log CFU/g ground chicken ground meat; conditions: separately or in a mixture; cited from earlier work
S. aureus biofilms = experiment: In vitro anti-biofilm effect, viable CFU counting; assay type: cell-based, Staphylococcus aureus; conditions: 1% glutaric acid alone
Procedure: Test organisms: Pseudomonas aeruginosa or Staphylococcus aureus wild-type strains Biofilm type: 48 hours- or 24 hours-old biofilms grown on semipermeable membranes placed on solidified medium supplemented with 0.5% glucose. In the case of 48 h-old biofilms, the membranes with biofilms were transferred onto fresh plates after 24 h.
Initial viable cell amount: 5×10^9 colony forming units (CFUs)
Treatment method: Membranes with biofilms were transferred to new plates. Eight-10 layers of sterile gauze were placed on the second membrane, and 1 ml of antimicrobial solution was pipetted on the gauze layers. The treatment was carried out at room temperature for 2-to-3 h, or 4-to-6 h. In the case of the 4-to-6 h treatments, the gauze layers were replaced with fresh gauze layers with 1 ml sample solution 2 or 3 h after the treatments had been initiated.
Evaluation method: The gauze layers were discarded, and each membrane with biofilms was transferred into a 15 ml tube containing 5 ml 0.9% NaCl, vortexed for 10 sec., sonicated in an ultrasound bath for 10 min, and vortexed again for 10 sec. Ten-fold serial dilutions were made, and 10 ul of each dilution was spot-plated on LB plates for viable CFU counting.

[4] = Powder flow determination (funnel flow, angle of repose); assay type: physicochemical; conditions: for flowability: 100 g, funnel outflow opening 15 mm
Procedure: 100 g of powdered calcium hypochlorite of sizes ≤355 μm and ≤500 μm was added, respectively, into a dry funnel (Ø110 mm, diameter of the outflow opening=15 mm), whose bottom opening has been blocked by a plastic cover. The bottom opening of the funnel was unblocked to measure the time needed for the entire sample to flow out. The flowability of particle sizes ≤355 μm and ≤500 μm is, respectively, 35.7 g/s and 37.4 g/s. The angle of repose was calculated as 29.5° and 26.8° for particle sizes 355 μm and ≤500 μm, respectively.

[5] = Dissolving time of powdered calcium hypochlorite in acetic acid/acetate buffer; assay type: physicochemical; conditions: 2500 rpm
Procedure: • I. 58±4 mg of all sizes of the powdered material was, respectively, dissolved in 100 mL 0.25% wt. acetic acid/acetate buffer. Particle size ≤250 μm dissolved within 10 seconds, ≤355 μm within 15 seconds and ≤500 μm within one minute and 25 seconds at 2500 rpm. • II. 58±4 mg of all sizes of the powdered material was, respectively, dissolved in 100 mL 3.0% wt. acetic acid/acetate buffer. Particle size ≤250 μm dissolved within 10 seconds, ≤355 μm within 25 seconds and ≤500 μm within 25 seconds at 2500 rpm. • III. 570±40 mg of all sizes of the powdered material was, respectively, dissolved in 100 mL 0.25% wt. acetic acid/acetate buffer. Particle size ≤250 μm dissolved within 15 seconds, ≤355 μm within 45 seconds and ≤500 μm within one minute and 35 seconds at 2500 rpm. • IV. 570±40 mg of all sizes of the powdered material was, respectively, dissolved in 100 mL 3.0% wt. acetic acid/acetate buffer. Repeated with 3.0% acetic acid/acetate buffer. Particle size ≤250 μm dissolved within 15 seconds, ≤355 μm within 15 seconds and ≤500 μm within 20 seconds at 2500 rpm.

OCl [hypochlorous acid]
pKa [1]: about 7
standard reduction potential ([2]; basic pH): +0.89
standard reduction potential ([2]; low pH): +1.49
virus-killing effect (human rhinovirus (HRV)): significant virus-killing effect
effects against avian influenza virus (avian influenza virus): good effects

CC(=O)C(=O)O [pyruvic acid]
reduction of bacterial log CFU/g [3]: ~2 log

O=C(O)CCCC(=O)O [glutaric acid]
effect on the biofilm (S. aureus biofilms): only minor effect

O=C([O-])CCC(=O)O.[Na+] [monosodium succinate]
reduction of bacterial log CFU/g [3]: ~2 log

[Ca+2].[O-]Cl.[O-]Cl [powdered calcium hypochlorite, calcium hypochlorite]
angle of repose ([4]; particle size 355 μm): 29.5 °
flowability ([4]; particle size ≤355 μm): 35.7 g/s
angle of repose ([4]; particle size ≤500 μm): 26.8 °
flowability ([4]; particle size ≤500 μm): 37.4 g/s
dissolving time ([5]; I: 58±4 mg in 100 mL 0.25% wt. acetic acid/acetate buffer, particle size ≤250 μm): ≤ 10 s
dissolving time ([5]; I: 58±4 mg in 100 mL 0.25% wt. buffer, particle size ≤355 μm): ≤ 15 s
dissolving time ([5]; II: 58±4 mg in 100 mL 3.0% wt. acetic acid/acetate buffer, particle size ≤250 μm): ≤ 10 s
dissolving time ([5]; II: 58±4 mg in 100 mL 3.0% wt. buffer, particle size ≤355 μm): ≤ 25 s
dissolving time ([5]; II: 58±4 mg in 100 mL 3.0% wt. buffer, particle size ≤500 μm): ≤ 25 s
dissolving time ([5]; III: 570±40 mg in 100 mL 0.25% wt. acetic acid/acetate buffer, particle size ≤250 μm): ≤ 15 s
dissolving time ([5]; III: 570±40 mg in 100 mL 0.25% wt. buffer, particle size ≤355 μm): ≤ 45 s
dissolving time ([5]; IV: 570±40 mg in 100 mL 3.0% wt. acetic acid/acetate buffer, particle size ≤250 μm): ≤ 15 s
dissolving time ([5]; IV: 570±40 mg in 100 mL 3.0% wt. buffer, particle size ≤355 μm): ≤ 15 s
dissolving time ([5]; IV: 570±40 mg in 100 mL 3.0% wt. buffer, particle size ≤500 μm): ≤ 20 s
